Entries after “also recorded” stand apart in the source; their conditions may differ.
Experiments:
P2ry12 [1] = biological target: T1, P2ry12 (Homo sapiens, UniProt Q9H244); experiment: ADP trans-well migration assay; assay type: cell-based; conditions: pre-exposure 50 μM, 1 hr; ADP 100 μM
T1 construct: iMGLs express the microglial-enriched purinergic receptor P2ry12; endogenous in cells; host or cells: iMGLs (human iPSC-derived microglia-like cells)
Procedure: Trans-well migration assays to ADP was performed as previously described (De Simone et al., 2010; Moore et al., 2015). iMGLs (5.5×10^4 cells/well) were cultured in serum-free basal media without cytokines for 1hour. Next, iMGLS were pre-exposed to DMSO or PSB0739 (50 μM, Tocris) for 1 hr at 37° C. in 5% CO2 cell culture incubator. Cells were then washed three times with basal medium and plated in trans-well migration chambers (5 μm polycarbonate inserts in 24 wells; Corning) containing […] (ADP, 100 μM; Sigma) in the bottom chamber in 37° C. in 5% CO2. After 4 hours, cells were washed three times and fixed in PFA (4%) for 15 minutes at room temperature. Cells were stained with Hoechst stain for 10 mins to visualize nuclei of cells. A blinded observer counted total cells per slide and then scrubbed cells off top surface, washed with PBS, and recounted to record migrated cells. Migration was reported as migrated over total cells per well. Fluorescent images of cells were captured using Olympus IX71 inverted microscope. […] […]

P2ry12 [2] = biological target: T1, P2ry12; experiment: ADP calcium imaging (Fura-2-AM, I340/I380); assay type: cell-based; conditions: 50 μM, 1 hour; ADP 10 μM
Procedure: For calcium imaging, iMGLs were plated on poly-L-lysine-coated coverslips and 1 hour later were incubated with Fura-2-AM (Molecular Probes) calcium dye diluted in Ringer solution containing (in mM): NaCl 140, KCl 4.5, CaCl2 2, MgCl2 1, HEPES 10, glucose 10, sucrose 5, pH=7.4. After a 1-hour incubation, the dye was washed out 3 times using Ringer solution and treated for 1 hour with either P2RY12 inhibitor PSB0739 (50 μM, Tocris) or Vehicle (DMSO) and used for experiments. Baseline Ca^2+ signal (I340/I380) were measured for more than 100 s and then ADP (10 μM) was introduced under stead flow after baseline measurement. Ca^2+ recordings were performed on Zeiss (Axiovert 35)-based imaging setup and data acquisition was conducted with Metafluor software (Molecular Devices). Data analysis was performed using Metafluor, Origin Pro, and Prism 6.0.

iMGLs [3] = experiment: Mesoscale multiplex cytokine and chemokine assay of iMGL conditioned media; assay type: cell-based, human; conditions: for CCL2 secretion, mean ± SE / CCL3 secretion, mean ± SE / CCL4 secretion, mean ± SE / CCL17 secretion, mean ± SE / CXCL10 secretion, mean ± SE / IL1A secretion, mean ± SE / IL6 secretion, mean ± SE / IL8 secretion, mean ± SE / IL10 secretion, mean ± SE / TNFA secretion, mean ± SE: iMGLs stimulated 24 h, IFNγ 20 ng/ml, IL-1β 20 ng/ml or LPS 100 ng/ml; for TNFA secretion, mean ± SE: n=3 wells/group; for cytokines/chemokines secreted by iMGLs in response to the stimulus: of the 10 examined cytokines, 24 h
Procedure: iMGLs culture media was replaced with basal media for 2 hours prior to stimulation with IFNγ (20 ng/ml), IL1β (20 ng/ml), and LPS (100 ng/ml) for 24 hours, after which cells were collected for RNA and conditioned media assessed for cytokine secretion. To simultaneously assess multiple cytokine and chemokine analytes from iMGL conditioned media, conditioned media from each treatment group was processed and analyzed using the V-PLEX human cytokine 30-plex kit (Mesoscale) according to the manufacturer protocol.

iMGLs [4] = experiment: RNA-seq differential gene expression of iMGLs with or without TGFβ; assay type: cell-based, human
Procedure: Cells were harvested and washed three times with DPBS and stored in RNAlater, RNA preservation solution. RNA was extracted from all cell types using RNeasy Mini Kit (Qiagen) following manufacturer's guidelines. RNA integrity (RIN) was measured for all samples using the Bioanalzyer Agilent 2100 series. All sequencing libraries analyzed were generated from RNA samples measuring a RIN score≥9. The Illumina TruSeq mRNA stranded protocol was used to obtain poly-A mRNA from all samples. 200 ng of isolated mRNA was used to construct RNA-seq libraries. Libraries were quantified and normalized using the Library Quantification Kit from Kapa Biosystems and sequenced as paired-end 100 bp reads on the Illumina HiSeq 2500 platform.
RNA-seq reads were mapped to the hg38 reference genome using STAR aligner and mapped to Gencode version 24 gene annotations using RSEM. Genes with expression (<1 FPKM) across all samples were filtered from all subsequent analysis. Differential gene expression analysis was performed on TMM normalized counts with EdgeR (Robinson et al., 2010). Multiple biological replicates were used for all comparative analysis. A p-value≤0.001 and a 2-fold change in expression were used in determining significant differentially expressed genes for respective comparisons. PCA analysis was performed using the R package rgl and plotted using plot3d. […]

T1 sequence (Q9H244 whole entry): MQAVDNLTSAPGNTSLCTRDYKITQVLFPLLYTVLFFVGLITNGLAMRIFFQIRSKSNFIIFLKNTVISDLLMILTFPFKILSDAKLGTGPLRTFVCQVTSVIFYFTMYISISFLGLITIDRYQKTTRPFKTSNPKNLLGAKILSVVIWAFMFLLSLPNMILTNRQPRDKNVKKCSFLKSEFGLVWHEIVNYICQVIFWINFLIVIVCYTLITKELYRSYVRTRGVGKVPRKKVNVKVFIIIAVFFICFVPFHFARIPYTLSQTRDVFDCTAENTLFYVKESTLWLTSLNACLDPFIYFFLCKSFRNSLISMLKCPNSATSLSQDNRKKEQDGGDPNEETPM

Nc1c(S(=O)(=O)O)cc(Nc2ccc(Nc3ccccc3)c(S(=O)(=O)O)c2)c2c1C(=O)c1ccccc1C2=O [PSB0739]
effect on ADP-induced iMGL migration (P2ry12 [1]): negated; also recorded: completely abrogates ADP-induced iMGL migration
effect on ADP-induced calcium flux in iMGLs (P2ry12 [2]): negated

IFNγ: cytokine used to stimulate iMGLs (20 ng/ml)
CCL2 secretion, mean ± SE (iMGLs [3]): 993.26 ± 55.76
CCL3 secretion, mean ± SE (iMGLs [3]): 295.39 ± 19.72
CCL4 secretion, mean ± SE (iMGLs [3]): 4,514.72 ± 10.01^
CCL17 secretion, mean ± SE (iMGLs [3]): 25.82 ± 1.98
CXCL10 secretion, mean ± SE (iMGLs [3]): 0.00 ± 0.00
IL1A secretion, mean ± SE (iMGLs [3]): 1.48 ± 0.25
IL6 secretion, mean ± SE (iMGLs [3]): 12.22 ± 1.44
IL8 secretion, mean ± SE (iMGLs [3]): 3549.05 ± 181.22
IL10 secretion, mean ± SE (iMGLs [3]): 4.59 ± 2.35
TNFA secretion, mean ± SE (iMGLs [3]): 58.82 ± 8.80
cytokines/chemokines secreted by iMGLs in response to the stimulus (iMGLs [3]): 8

IL-1β: cytokine used to stimulate iMGLs (20 ng/ml)
CCL2 secretion, mean ± SE (iMGLs [3]): 275.98 ± 19.54
CCL3 secretion, mean ± SE (iMGLs [3]): 556.24 ± 54.01
CCL4 secretion, mean ± SE (iMGLs [3]): 4,492.26 ± 51.35^
CCL17 secretion, mean ± SE (iMGLs [3]): 21.75 ± 1.94
CXCL10 secretion, mean ± SE (iMGLs [3]): 69.49 ± 4.73
IL1A secretion, mean ± SE (iMGLs [3]): 4.89 ± 1.45
IL6 secretion, mean ± SE (iMGLs [3]): 13.92 ± 0.41
IL8 secretion, mean ± SE (iMGLs [3]): 3,004.54 ± 47.58^
IL10 secretion, mean ± SE (iMGLs [3]): 4.42 ± 1.33
TNFA secretion, mean ± SE (iMGLs [3]): 29.74 ± 0.65
cytokines/chemokines secreted by iMGLs in response to the stimulus (iMGLs [3]): 8

Lipopolysaccharide [LPS]
CCL2 secretion, mean ± SE (iMGLs [3]): 5,695.46 ± 275.72
CCL3 secretion, mean ± SE (iMGLs [3]): 0.00 ± 0.00
CCL4 secretion, mean ± SE (iMGLs [3]): 4,594.57 ± 33.96^
CCL17 secretion, mean ± SE (iMGLs [3]): 92.96 ± 7.70
CXCL10 secretion, mean ± SE (iMGLs [3]): 73.72 ± 4.53
IL1A secretion, mean ± SE (iMGLs [3]): 30.55 ± 2.19
IL6 secretion, mean ± SE (iMGLs [3]): 274.39 ± 15.25
IL8 secretion, mean ± SE (iMGLs [3]): 4,347.96 ± 75.61^
IL10 secretion, mean ± SE (iMGLs [3]): 31.31 ± 1.52
TNFA secretion, mean ± SE (iMGLs [3]): 116.49 ± 9.77
cytokines/chemokines secreted by iMGLs in response to the stimulus (iMGLs [3]): induction of all measured cytokines except for CCL3

TGFβ: glia-derived cytokine in iMGL differentiation media (50 ng/ml)
genes differentially expressed in iMGLs after TGFβ removal (iMGLs [4]; TGFβ removal (24 hours)): 1517 genes
genes differentially expressed (increased) in iMGLs with TGFβ (iMGLs [4]; presence of TGFβ): 1262 genes

— patent US20240417684A1, “DIFFERENTIATION AND USE OF HUMAN MICROGLIA-LIKE CELLS FROM PLURIPOTENT STEM CELLS AND HEMATOPOIETIC PROGENITORS” (THE REGENTS OF THE UNIVERSITY OF CALIFORNIA, priority 2017, published 2024)
